The text below walks through data of patent US8796460B2, “Compounds for inhibiting KSP kinesin activity” (Mercky Sharp & Dohme Corp., priority 2007, dated 2014).

One assay has as its system HCT116 colon cancer cells. Description: KSP Cellular Assay (percent of cells staining positive for Phos-Histone H3 / Phos-MPM2). It counts as cell-based. The note with it: Homo sapiens, HCT-116, 16 h, Table 101; HCT116 cells, 16 hours with drug; read-out: ED50 (nM) Range. The method, then: HCT116 colon cancer cells were grown in DMEM:F12 media with 10% heat inactivated FBS at 37 degrees with 5% CO2. Cells were plated at 7,500 cells per well in PDL coated 384-well tissue culture plates. 6 hours later media was removed and new media containing drug was added. Cells were incubated with drug for 16 hours. All further steps were performed at room temperature in the dark. Cells were fixed with 25 ul/well Prefer fixation solution plus 250 nM Hoechst dye and incubated for 30 minutes. The fixation solution was removed and cells were washed with PBS. Cells were then permeabilized with 25 ul/well 0.2% Triton-X in PBS and incubated for 10 minutes. Cells were washed with PBS and then incubated with 25 ul/well PBS containing 3% FBS for 30 minutes. Cells were then stained overnight at 4 degrees with 25 ul/well antibody solution in PBS plus 3% FBS. Antibodies used were Phos-Histone H3 (ser10)-Alexa Flur 488 Conjugate and Phos-MPM2 Texas Red Conjugate. Cells were washed with PBS and then immunofluorescence images captured with HT Pathway microscope. The percent of cells staining positive was calculated and EC50 values for the compounds of the invention that were tested were determined using Excel XLfit.
EC50 Determinations: Dose-response curves were plotted from inhibition data generated each in duplicate, from 8 point serial dilutions of inhibitory compounds. Concentration of compound was plotted against enzyme activity (OD reading). To generate EC50 values, the dose-response curves were then fitted to a standard sigmoidal curve and EC50 values were derived by nonlinear regression analysis.
For the molecule `CC(=O)N1N=C(c2cc(F)ccc2F)S[C@]12CCc1ccccc12` [compound 119], the EC50 lay within 500 to 1000 nM. The same measure, in the same setting: under `CC(=O)N1N=C(c2cc(F)ccc2F)SC12CCS(=O)(=O)c1ccccc12` (centres unmarked) [compound 109] stands > 1000 nM; under `CC(=O)N1N=C(c2cc(F)ccc2F)SC12CCCCc1ccccc12` (centres unmarked) [compound 122], > 1000 nM. `CC(=O)N1N=C(c2cc(F)ccc2F)SC12CCOc1ccccc12` (centres unmarked) [compound 102]: the EC50 is ≤ 500 nM.

Staying with this assay, now noted: Homo sapiens, HCT-116, 16 h, Table 401; HCT116 cells, 16 hours with drug; read-out: ED50 (nM) Range.
`CC(C)[C@H](O)C(=O)N1N=C(c2cc(F)ccc2F)SC12CCCc1ccsc12` (some centres unmarked) [compound 424]: the EC50 was > 1000 nM. For `O=C([C@@H]1CCCN1)N1N=C(c2cc(F)ccc2F)SC12CCCc1sccc12` (some centres unmarked) [compound 411], the EC50 was > 1000 nM. The same measure, in the same setting: under `CC(N)CCC(=O)N1N=C(c2cc(F)ccc2F)SC12CCOc1ccccc12` (centres unmarked) [compound 490] stands ≤ 500 nM; under `O=C(Cc1cccnc1)N1N=C(c2cc(F)ccc2F)SC12CCc1ccccc12` (centres unmarked) [compound 450], 500 to 1000 nM. Turning to `O=C(N1N=C(c2cc(F)ccc2F)SC12CCOc1ccccc12)C(F)(F)F` (centres unmarked) [compound 470], the EC50 is > 1000 nM. For `O=C(CCCN1CCCC1)N1N=C(c2cc(F)ccc2F)SC12CCc1ccccc12` (centres unmarked) [compound 454], the EC50 was ≤ 500 nM. The same measure, in the same setting: under `CN(C)CCCC(=O)N1N=C(c2cc(F)ccc2F)SC12CCOc1ccccc12` (centres unmarked) [compound 475] stands ≤ 500 nM.

Take `CNCCCC(=O)N1N=C(c2cc(F)ccc2F)SC12CCOc1ccccc12` (centres unmarked) [compound 489]: the EC50 is ≤ 500 nM.

`CN1CCC(C(=O)N2N=C(c3cc(F)ccc3F)SC23CCCc2ccsc23)CC1` (centres unmarked) [compound 429]: the EC50 is > 1000 nM. Still for that read-out and setting: as for `NCCC(=O)N1N=C(c2cc(F)ccc2F)SC12CCOc1ccccc12` (centres unmarked) [compound 433], the figure is 500 to 1000 nM; as for `O=C(Cc1ccncc1)N1N=C(c2cc(F)ccc2F)SC12CCc1ccccc12` (centres unmarked) [compound 449], ≤ 500 nM; as for `O=C([C@@H]1CCCN1)N1N=C(c2cc(F)ccc2F)SC12CCSc1ccccc12` (some centres unmarked) [compound 413], > 1000 nM. As to `CNCCCC(=O)N1N=C(c2cc(F)ccc2F)SC12CCc1ccccc12` (centres unmarked) [compound 453], the EC50 was > 500 nM. With `O=C(CCCN1CCOCC1)N1N=C(c2cc(F)ccc2F)SC12CCOc1ccccc12` (centres unmarked) [compound 495], the EC50 was > 500 nM. With `NCCCCC(=O)N1N=C(c2cc(F)ccc2F)SC12CCc1ccccc12` (centres unmarked) [compound 443], the EC50 was ≤ 500 nM. The same measure, in the same setting: as for `CN1CCC(C(=O)N2N=C(c3cc(F)ccc3F)SC23CCc2ccccc23)CC1` (centres unmarked) [compound 421], the figure is > 1000 nM; as for `O=C(CCCN1CCCCC1)N1N=C(c2cc(F)ccc2F)SC12CCc1ccccc12` (centres unmarked) [compound 456], ≤ 500 nM. The same measure, in the same setting: as for `O=C1CCCN1CCCC(=O)N1N=C(c2cc(F)ccc2F)SC12CCOc1ccccc12` (centres unmarked) [compound 493], the figure is > 500 nM. Same read-out and setting: as for `O=C([C@@H]1CCCCN1)N1N=C(c2cc(F)ccc2F)SC12CCCc1ccccc12` (some centres unmarked) [compound 414], the figure is > 1000 nM; as for `O=C(CCC1CCNCC1)N1N=C(c2cc(F)ccc2F)SC12CCOc1ccccc12` (centres unmarked) [compound 498], ≤ 500 nM. With `CC(C)(C)C(=O)N1N=C(c2cc(F)ccc2F)SC12CCOc1ccccc12` (centres unmarked) [compound 430], the EC50 was > 1000 nM.

For the molecule `O=C(CCC1CCCNC1)N1N=C(c2cc(F)ccc2F)SC12CCc1ccccc12` (centres unmarked) [compound 448], the EC50 was > 1000 nM. On the same count and under the same terms, as for `N[C@H](C(=O)N1N=C(c2cc(F)ccc2F)SC12CCCc1ccccc12)C1CC1` (some centres unmarked) [compound 418], the figure is > 1000 nM.

Still in this assay, the particulars now being: Homo sapiens, HCT-116, 16 h, Table 601; HCT116 cells, 16 hours with drug; read-out: EC50 (nM) Range.
Consider `CN(C)C(=O)N1N=C(c2cc(F)ccc2F)SC12CCCc1sccc12` (centres unmarked) [compound 603], for which the EC50 was > 1000 nM.

The same assay, now with this note: Homo sapiens, HCT-116, 16 h, Table 701; HCT116 cells, 16 hours with drug; read-out: EC50 (nM) Range.
In the case of `CCN1N=C(c2cc(F)ccc2F)SC12CCOc1ccccc12` (centres unmarked) [compound 703], the EC50 is > 1000 nM. On the same count and under the same terms, as for `COCCN1N=C(c2cc(F)ccc2F)SC12CCOc1ccccc12` (centres unmarked) [compound 704], the figure is > 1000 nM; as for `NCCN1N=C(c2cc(F)ccc2F)SC12CCOc1ccccc12` (centres unmarked) [compound 701], > 1000 nM.

Still in this assay, the particulars now being: Homo sapiens, HCT-116, 16 h, Table 801; HCT116 cells, 16 hours with drug; read-out: EC50 (nM) Range.
For `CC(=O)N1N=C(c2cc(F)ccc2F)S[C@@]12c1cc(F)ccc1OC[C@@H]2CCN` [compound 804], the EC50 is ≤ 500 nM. For the molecule `CC(=O)N1N=C(c2cc(F)ccc2F)S[C@@]12c1ccccc1OC[C@@H]2CCN` [compound 814], the EC50 is ≤ 500 nM. Take `CC(=O)N1N=C(c2cc(F)ccc2F)S[C@@]12c1cccc(F)c1OC[C@H]2CCN` [compound 809]: the EC50 is ≤ 500 nM.

Staying with this assay, now noted: Homo sapiens, HCT-116, 16 h, Table 1201 (Example 1201); HCT116 cells, 16 hours with drug; read-out: EC50 (nM) Range.
Regarding `CC(=O)N1N=C(c2cc(F)ccc2F)S[C@@]12c1ccccc1OC[C@H]2CCN1CCOCC1` (single isomer, unassigned) [compound 1201], the EC50 is ≤ 500 nM.

Staying with this assay, now noted: Homo sapiens, HCT-116, 16 h, table of Example 1001; HCT116 cells, 16 hours with drug; read-out: EC50 (nM) Range.
Consider `CC(=O)N1N=C(c2cc(F)ccc2F)S[C@]12c1ccccc1OC[C@H]2CCCO` (single isomer, unassigned) [compound 1002], for which the EC50 is ≤ 500 nM.

The assay is the same for the next values; noted with them: Homo sapiens, HCT-116, 16 h, table of Example 1004; HCT116 cells, 16 hours with drug; read-out: EC50 (nM) Range.
On to `CC(=O)N1N=C(c2cc(F)ccc2F)S[C@@]12c1ccccc1OC[C@H]2CCCN` [compound 1004], for which the EC50 was ≤ 500 nM.

The same assay, now with this note: Homo sapiens, HCT-116, 16 h, table of Example 1801 (headed Table 1201); HCT116 cells, 16 hours with drug; read-out: EC50 (nM) Range.
Regarding `CC(=O)N1N=C(c2cc(C(F)(F)F)ccc2F)S[C@@]12c1ccccc1OC[C@H]2CCN` [compound 1806], the EC50 was ≤ 500 nM.

As for `CC(=O)N1N=C(c2cc(F)cc(F)c2)S[C@]12c1ccccc1OC[C@@H]2CCN` [compound 1818], the EC50 is > 1000 nM. `CC(=O)N1N=C(c2ccc(F)cc2F)S[C@@]12c1cc(F)ccc1OC[C@H]2CCN` [compound 1819]: the EC50 is ≤ 500 nM. On to `CC(=O)N1N=C(c2cccc(F)c2)S[C@]12c1ccccc1OC[C@@H]2CCN` [compound 1811], for which the EC50 is > 1000 nM. Still for that read-out and setting: under `CC(=O)N1N=C(c2ccccc2F)S[C@]12c1ccccc1OC[C@@H]2CCN` [compound 1804] stands > 1000 nM; under `CC(=O)N1N=C(c2cc(F)cc(F)c2)S[C@]12c1cc(F)ccc1OC[C@@H]2CCN` [compound 1824], > 1000 nM. In the case of `CC(=O)N1N=C(c2cc(C(F)(F)F)ccc2F)S[C@]12c1ccccc1OC[C@@H]2CCN` [compound 1807], the EC50 is > 1000 nM. In the case of `CC(=O)N1N=C(c2ccccc2F)S[C@@]12c1ccccc1OC[C@H]2CCN` [compound 1802], the EC50 is ≤ 500 nM.

Turning to `CC(=O)N1N=C(c2cccc(C(F)(F)F)c2)S[C@]12c1ccccc1OC[C@@H]2CCN` [compound 1817], the EC50 was > 1000 nM. Same read-out and setting: as for `CC(=O)N1N=C(c2ccccc2)S[C@@]12c1ccccc1OC[C@H]2CCN` [compound 1808], the figure is ≤ 500 nM; as for `CC(=O)N1N=C(c2cccc(Cl)c2)S[C@@]12c1ccccc1OC[C@H]2CCN` [compound 1812], ≤ 500 nM.

Staying with this assay, now noted: Homo sapiens, HCT-116, 16 h, table of Example 1901; HCT116 cells, 16 hours with drug; read-out: EC50 (nM) Range.
`CO[C@H](C)C(=O)N1N=C(c2cc(F)ccc2F)S[C@@]12c1cc(F)ccc1OC[C@H]2CCN` [compound 1904]: the EC50 was ≤ 500 nM. With `COCCOCC(=O)N1N=C(c2cc(F)ccc2F)S[C@]12c1cc(F)ccc1OC[C@@H]2CCN` [compound 1905], the EC50 is > 1000 nM. On the same count and under the same terms, under `COCCOCC(=O)N1N=C(c2cc(F)ccc2F)S[C@@]12c1ccccc1OC[C@H]2CCN` [compound 1909] stands ≤ 500 nM. Regarding `COCCOCC(=O)N1N=C(c2cc(F)ccc2F)S[C@]12c1cc(F)cc(F)c1OC[C@@H]2CCN` [compound 1912], the EC50 is > 1000 nM.

Staying with this assay, now noted: Homo sapiens, HCT-116, 16 h, table of Example 2001; HCT116 cells, 16 hours with drug; read-out: EC50 (nM) Range.
For the molecule `CO[C@@H](C)C(=O)N1N=C(c2cc(F)ccc2F)S[C@@]12c1ccccc1OC[C@H]2CCN` [compound 2008], the EC50 is ≤ 500 nM.

Still in this assay, the particulars now being: Homo sapiens, HCT-116, 16 h, table of Example 2801; HCT116 cells, 16 hours with drug; read-out: EC50 (nM) Range.
With `CC(=O)N1N=C(c2cc(F)ccc2F)S[C@]12c1ccccc1NC[C@H]2CCN` [compound 2801], the EC50 is ≤ 500 nM.

The assay is the same for the next values; noted with them: Homo sapiens, HCT-116, 16 h, table of Example 2901; HCT116 cells, 16 hours with drug; read-out: EC50 (nM) Range.
On to `CC(=O)N1N=C(c2cc(F)ccc2F)S[C@@]12c1cc(F)ccc1NC[C@@H]2CCN` (single isomer, unassigned) [compound 2901], for which the EC50 was ≤ 500 nM.

Still in this assay, the particulars now being: Homo sapiens, HCT-116; read-out: EC50 (nM) Range.
Consider `C=CC[C@@H]1CNc2ccccc2[C@]12SC(c1cc(F)ccc1F)=NN2C(C)=O` (single isomer, unassigned) [compound 3001], for which the EC50 is ≤ 500 nM.
